Test [1] has as its target T1, P2X purinoceptor 7 (Homo sapiens, UniProt Q99572).
T1 sequence (Q99572 whole entry): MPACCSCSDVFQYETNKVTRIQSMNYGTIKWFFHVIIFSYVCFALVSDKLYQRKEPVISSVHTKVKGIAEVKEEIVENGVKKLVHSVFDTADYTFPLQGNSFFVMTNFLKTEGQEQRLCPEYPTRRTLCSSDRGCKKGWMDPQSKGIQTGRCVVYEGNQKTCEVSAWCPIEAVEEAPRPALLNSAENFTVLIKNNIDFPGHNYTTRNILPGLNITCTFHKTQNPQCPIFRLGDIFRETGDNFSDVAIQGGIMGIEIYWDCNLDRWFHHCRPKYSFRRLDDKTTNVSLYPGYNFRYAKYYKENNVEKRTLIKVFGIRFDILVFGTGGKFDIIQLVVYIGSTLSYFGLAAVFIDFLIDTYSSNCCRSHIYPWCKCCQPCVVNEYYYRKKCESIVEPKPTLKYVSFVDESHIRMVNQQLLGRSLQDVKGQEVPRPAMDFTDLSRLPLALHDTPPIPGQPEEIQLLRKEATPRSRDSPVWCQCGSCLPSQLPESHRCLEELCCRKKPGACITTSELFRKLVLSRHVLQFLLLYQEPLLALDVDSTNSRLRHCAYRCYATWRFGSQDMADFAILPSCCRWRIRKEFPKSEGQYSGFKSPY
Briefly: Antagonist activity at human recombinant P2X7 receptor assessed as inhibition of BzATP-induced calcium flux by FLIPR assay. The test is classed as functional. A general note: A change in cytosolic calcium serves as a functional read-out for many receptors and channels.

The target in test [2] is T2, P2X purinoceptor 7 (Rattus norvegicus, UniProt Q64663).
T2 sequence (Q64663 whole entry): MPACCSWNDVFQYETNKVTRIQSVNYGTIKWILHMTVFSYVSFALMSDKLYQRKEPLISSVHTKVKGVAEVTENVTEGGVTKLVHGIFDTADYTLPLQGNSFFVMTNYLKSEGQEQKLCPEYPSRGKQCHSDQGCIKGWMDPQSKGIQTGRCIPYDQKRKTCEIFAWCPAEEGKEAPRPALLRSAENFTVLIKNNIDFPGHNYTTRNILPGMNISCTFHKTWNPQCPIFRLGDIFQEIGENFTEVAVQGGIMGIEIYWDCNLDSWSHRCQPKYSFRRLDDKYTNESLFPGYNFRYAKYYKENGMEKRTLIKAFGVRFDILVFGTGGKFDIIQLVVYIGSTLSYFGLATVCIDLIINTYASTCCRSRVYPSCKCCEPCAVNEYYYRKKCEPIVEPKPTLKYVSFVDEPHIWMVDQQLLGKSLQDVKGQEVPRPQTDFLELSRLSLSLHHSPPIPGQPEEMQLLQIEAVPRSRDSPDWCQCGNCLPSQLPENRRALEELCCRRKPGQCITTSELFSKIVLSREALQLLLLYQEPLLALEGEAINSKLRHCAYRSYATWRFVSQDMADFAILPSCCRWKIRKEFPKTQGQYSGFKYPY
Briefly: Antagonist activity at rat recombinant P2X7 receptor assessed as inhibition of BzATP-induced calcium flux by FLIPR assay. Type of test: functional.

Where only a bound is given, the exact number is not on record here.

By IC50 is commonly meant the concentration at which inhibition is half-maximal.

As to `Clc1cccc(-n2cnnc2NCc2cccnc2Oc2cccnc2)c1Cl`, the half-inhibitory concentration (IC50) is 30.9 nM in test [1] and 35.5 nM in test [2].

Regarding `COc1ccccc1Nc1ncnn1-c1cccc(Cl)c1Cl`, the half-inhibitory concentration (IC50) in test [1] was 102 nM; in test [2], 2040 nM.

Turning to `CCOc1ccccc1CNc1ncnn1-c1cccc(Cl)c1Cl`, the results for the 50% inhibitory concentration (IC50) in test [1] and in test [2] were 45.7 nM and 490 nM, respectively. The corresponding values for `Clc1cccc(-n2ncnc2NCc2cccnc2N2CCCC2)c1Cl` are 12.6 nM and 28.2 nM. The corresponding values for `Clc1cccc(-n2ncnc2NCc2ccncc2)c1Cl` are more than 10000 nM and more than 10000 nM. Take `Cc1ncccc1CNc1nncn1-c1cccc(Cl)c1Cl`: the half-maximal inhibitory concentration (IC50) in test [1] is 28.8 nM; in test [2] it was 178 nM.

On to `Clc1cccc(-n2ncnc2NCc2cccnc2-c2ccsc2)c1Cl`, for which the IC50 in test [1] is 15.1 nM; in test [2], 138 nM. The matching figures for `Clc1cccc(-n2ncnc2NCc2cccnc2Oc2cccnc2)c1Cl`: 13.8 nM and 129 nM. The matching figures for `Clc1cccc(-n2ncnc2Nc2ccccc2N2CCOCC2)c1Cl`: 3390 nM and 4900 nM. In the case of `Clc1cccc(-n2ncnc2Nc2ccccc2)c1Cl`, the IC50 was 363 nM in test [1] and 3890 nM in test [2]. As for `Clc1cccc(-n2ncnc2NCc2cccnc2)c1Cl`, the values for the half-inhibitory concentration (IC50) in test [1] and in test [2] were 117 nM and 1320 nM, respectively. Turning to `CC(C)N1CCCN(c2ncccc2CNc2nncn2-c2cccc(Cl)c2Cl)CC1`, the IC50 in test [1] is 67.6 nM. Take `NC(=O)CN1CCCN(c2ncccc2CNc2nncn2-c2cccc(Cl)c2Cl)CC1`: the IC50 in test [1] is 32.4 nM. Take `Cc1ccccc1Nc1ncnn1-c1cccc(Cl)c1Cl`: the half-maximal inhibitory concentration (IC50) in test [1] was 17.8 nM; in test [2], 240 nM. Consider `CCc1ccccc1Nc1ncnn1-c1cccc(Cl)c1Cl`, for which the figures for the IC50 in test [1] and in test [2] were 45.7 nM and 288 nM, respectively.

With `COc1cccc(CNc2ncnn2-c2cccc(Cl)c2Cl)c1OC`, the values for the half-maximal inhibitory concentration (IC50) in test [1] and in test [2] were 30.9 nM and 135 nM, respectively.

Regarding `Clc1cccc(-n2cnnc2NCc2cccnc2N2CCCC2)c1Cl`, the values for the half-inhibitory concentration (IC50) in test [1] and in test [2] were 14.8 nM and 12 nM, respectively. The corresponding values for `Cc1cccc(CNc2ncnn2-c2cccc(Cl)c2Cl)c1` are 155 nM and 1020 nM. The corresponding values for `Cc1ccc(CNc2ncnn2-c2cccc(Cl)c2Cl)cc1` are 479 nM and 7080 nM. For `Clc1cccc(-n2ncnc2NCc2ccccc2)c1Cl`, the results for the half-inhibitory concentration (IC50) in test [1] and in test [2] were 47.9 nM and 209 nM, respectively. As to `Cc1cccc(CNc2ncnn2-c2cccc(Cl)c2Cl)c1C`, the values for the half-inhibitory concentration (IC50) in test [1] and in test [2] were 67.6 nM and 631 nM, respectively. The matching figures for `Clc1cccc(-c2nnnn2Cc2cccnc2)c1Cl`: 123 nM and 309 nM.

Consider `Clc1cccc(-n2ncnc2NCc2ccccc2Oc2cccnc2)c1Cl`, for which the results for the half-inhibitory concentration (IC50) in test [1] and in test [2] were 46.8 nM and 158 nM, respectively. Take `Clc1cccc(-n2ncnc2NCc2cccnc2N2CCC2)c1Cl`: the concentration for half-maximal inhibition (IC50) in test [1] is 9.12 nM; in test [2] it was 25.7 nM.

For the molecule `Clc1cccc(-n2cnnc2NCc2cccnc2-c2ccsc2)c1Cl`, the IC50 in test [1] was 11 nM; in test [2], 36.3 nM.

`Cc1ccccc1CNc1ncnn1-c1cccc(Cl)c1Cl`: the values for the half-maximal inhibitory concentration (IC50) in test [1] and in test [2] were 20.9 nM and 200 nM, respectively. Regarding `Cc1nnc(NCc2cccnc2-c2ccsc2)n1-c1cccc(Cl)c1Cl`, the half-inhibitory concentration (IC50) was 39.8 nM in test [1] and 45.7 nM in test [2].

Regarding `COc1ccccc1CNc1ncnn1-c1cccc(Cl)c1Cl`, the concentration for half-maximal inhibition (IC50) was 57.5 nM in test [1] and 708 nM in test [2].

With `CCOc1ccccc1Nc1ncnn1-c1cccc(Cl)c1Cl`, the figures for the IC50 in test [1] and in test [2] were 1860 nM and 11000 nM, respectively. The matching figures for `CS(=O)(=O)c1ccccc1CNc1ncnn1-c1cccc(Cl)c1Cl`: 20 nM and 39.8 nM. Consider `CSc1ccccc1CNc1ncnn1-c1cccc(Cl)c1Cl`, for which the half-maximal inhibitory concentration (IC50) is 49 nM in test [1] and 288 nM in test [2].

For the molecule `COc1cccc(CNc2ncnn2-c2cccc(Cl)c2Cl)c1`, the concentration for half-maximal inhibition (IC50) in test [1] is 288 nM; in test [2] it was 1380 nM. The matching figures for `Clc1cccc(-n2cnnc2NCc2cccnc2)c1Cl`: 355 nM and 1120 nM. The matching figures for `FC(F)(F)Oc1ccccc1Nc1ncnn1-c1cccc(Cl)c1Cl`: 617 nM and 5500 nM.

Take `COc1ccc(CNc2ncnn2-c2cccc(Cl)c2Cl)cc1`: the values for the IC50 in test [1] and in test [2] were 1620 nM and 10500 nM, respectively. The matching figures for `Clc1cccc(-n2ncnc2NCc2cccnc2N2CCOCC2)c1Cl`: 28.2 nM and 214 nM. The matching figures for `Cc1ncccc1CNc1ncnn1-c1cccc(Cl)c1Cl`: 11.7 nM and 295 nM.

(Values after ChEMBL document CHEMBL1143223, “Synthesis and in vitro activity of 1-(2,3-dichlorophenyl)-N-(pyridin-3-ylmethyl)-1H-1,2,4-triazol-5-amine and 4-(2,3-dichlorophenyl)-N-(pyridin-3-ylmethyl)-4H-1,2,4-triazol-3-amine P2X7 antagonists” (Bioorg Med Chem Lett, 2008).)
